Source: patent US7078395B1, “Methods for treating or preventing cancer by preventing, inhibiting or arresting cell cycling” (priority 1999, dated 2006)

Experiments:
[1] = tested on: MCF-7 breast cancer cells; test: Cell Titer 96 cell proliferation assay, 4-day drug exposure; assay type: cell-based
Protocol: (§1) MCF-7 (ER+) and MDA-MB-231 (ER−) breast cancer cells were obtained from the American Type Culture Collection (Rockville, Md.). Cells were routinely cultured in 25 cm^2 culture flasks in Eagle's minimum essential medium (EMEM) with Hepes buffer (20 mM). This medium was supplemented with L-glutamine (2 mM), sodium hydrogen carbonate (10 mM), 1% non-essential amino acids and 5% (v/v) foetal calf serum (FCS). Before adding test compounds, cells were washed with phosphate-buffered saline (PBS) and treatments added in phenol-red free medium containing 2% stripped FCS and supplements. The effects of 2-MeOE1 or 2-MeOEMATE on the growth of MCF-7 cells was assessed using a Cell Titer 96 cell proliferation assay (Promega, Southampton, Hants, UK) according to the manufacturers' instructions. For this, cells (5000 per well) were cultured in medium containing phenol-red and 10% FCS and were exposed to a drug for 4 days before the assay was performed. For MDA-MB-231 cells, cell numbers were determined using a Coulter counter.

[2] = tested on: MCF7 cells; test: Proportion of cells in mitosis (PI stained cytospins, confocal microscopy); assay type: cell-based; conditions: 24 hours (control 4%)
Protocol: To determine the proportion of cells in mitosis, drug treated cells were collected by trypsinisation and cytospins prepared. Cells were fixed in ice cold methanol for 5 minutes, air dried and DNA was stained using propidium iodide (PI) (0.1 mg/ml in phosphate buffered saline (PBS) containing 10% (v/v) newborn calf serum and 0.05% (w/v) sodium azide). Cells were analysed by confocal microscopy using a Zeiss Axiovert 100 M microscope equipped with the LSM 510 confocal system (Zeiss, Jena, Germany).
Effect of estrone derivatives on mitosis in MCF7 cells. MCF7 cells were treated with the indicated compounds for 24 hours. Cells were recovered by trypsinisation and cytospins prepared. DNA was stained with PI and cells in mitosis (i.e., with condensed chromosomes) determined as a percentage of total cells.

[3] = tested on: MCF-7 cells; test: TUNEL analysis of apoptosis; assay type: cell-based; conditions: 10 μM, 48 h
Description: The ability of 2-MeOEMATE to induce apoptosis in MCF-7 cells was examined by TUNEL analysis using an in situ cell death detection kit (Boehringer Manheim UK Ltd., Lewes, East Sussex, UK). Cells were fixed and permeabilised according to the manufacturers' instructions. Stained apoptotic cells were quantitated by flow cytometry.

[4] = tested on: breast tumour-derived fibroblasts; test: Morphology and cell number (Coulter counter) of fibroblasts; assay type: cell-based; conditions: 24 h
Protocol: For the culture of fibroblasts, resected breast tumour tissue was minced and incubated in EMEM for 18-24 h at 37° C. with collagenase (200 μg/ml). The dispersed cells were harvested by centrifugation and washed twice with medium to remove collagenase. Dispersed cells were seeded into culture flasks and grown to confluence before passaging on a weekly basis. For experimental purposes 12 well multi-well plates or 25 cm^2 flasks were seeded with fibroblasts and grown to 70-80% confluency. Cells were washed with PBS and exposed to drugs for 24 h before determining cell numbers using a Coulter counter.
(§2) Photomicrographs of control and treated cells were taken under normal conditions of light and exposure using an Olympus SL35 Type 12 camera under an Olympus CK2 microscope (×100 magnification).

[5] = (18, 19); cited from earlier work
[6] = molecular target: T1, steroid sulphatase (Homo sapiens, UniProt P08842); conditions: compared with EMATE (18, 19); cited from earlier work
T1 sequence (P08842 22-583): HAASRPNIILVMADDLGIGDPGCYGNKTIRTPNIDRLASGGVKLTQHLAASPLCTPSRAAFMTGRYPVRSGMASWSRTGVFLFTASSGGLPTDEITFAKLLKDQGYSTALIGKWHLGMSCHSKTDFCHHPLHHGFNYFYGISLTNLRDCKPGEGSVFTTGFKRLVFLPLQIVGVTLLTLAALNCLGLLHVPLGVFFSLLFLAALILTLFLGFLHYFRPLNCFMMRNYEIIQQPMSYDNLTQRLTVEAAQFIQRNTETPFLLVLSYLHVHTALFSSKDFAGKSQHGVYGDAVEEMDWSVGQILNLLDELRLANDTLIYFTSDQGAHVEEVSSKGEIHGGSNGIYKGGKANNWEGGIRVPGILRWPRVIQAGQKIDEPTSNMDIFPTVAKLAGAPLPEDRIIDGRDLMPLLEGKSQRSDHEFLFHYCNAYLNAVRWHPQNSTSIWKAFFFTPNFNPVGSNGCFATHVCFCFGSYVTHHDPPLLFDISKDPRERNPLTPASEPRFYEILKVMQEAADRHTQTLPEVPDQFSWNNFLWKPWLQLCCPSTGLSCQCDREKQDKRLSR

[7] = tested on: MCF-7 cells; test: Flow cytometry analysis of cell cycle distribution (propidium iodide); assay type: cell-based; conditions: 10 μM; for proportion of cells in the G1 phase: time-course study (untreated 66%)
Protocol: Cells were cultured in the presence of 2-MeOE1, 2-MeOEMATE or vehicle for up to 48 h. To examine the reversibility of the effects of 2-MeOEMATE on the cell cycle, cells were treated for 24 h with the drug after which cells were washed and cultured in fresh medium without drug for a further 24 h period.
To prepare cells for analysis of DNA content, cells were trypsinised (0.25% trypsin, 0.02% EDTA), washed with PBS and fixed with 70% ethanol. Cells were collected by centrifugation, re-suspended in PBS (1-2×10^6 cells/ml) and treated with RNase A (0.1 mg/ml) and stained with propidium iodide (0.05 mg/ml) for 30 min at room temperature. Cells were analysed with a flow cytometer (FACscan, Becton Dickinson Immunocytormetry System, Bedford Mass.).

[8] = tested on: MCF-7 breast cancer cells; test: Cell morphology by photomicrographs; assay type: cell-based; conditions: 1 μM, 24 h
Protocol: as §1, §2

[9] = Homo sapiens, MCF7, 96 h, read-out: inhibition of proliferation of MCF-7 cells

COc1cc2c(cc1OS(N)(=O)=O)CCC1C2CC[C@]2(C)C(=O)CCC12 (stereo partly drawn) [2-MeOEMATE, 2-methoxyoestrone-3-O-sulphamate]
inhibition of proliferation of MCF-7 cells ([1]; 10 μM, 4 days): no further effect on cell proliferation | inhibition at 0.1 µM [1, 9]: 29% | inhibition at 1 µM [1, 9]: 52% | mitotic cells, percentage of total cells ([2]; 500 nM): 26% | mitotic cells, percentage of total cells ([2]; 5 μM): 38% | fluorescently labelled (TUNEL positive) cells as proportion of the cell population [3]: approximately 10% | effect on fibroblast morphology ([4]; 1 μM): little effect on cell morphology | effect on fibroblast morphology ([4]; 5 μM): rounding of a significant proportion of fibroblasts | effect on the number of fibroblasts [4]: did not reduce the number of fibroblasts | oestrogenicity [5]: devoid of oestrogenicity | potency as a steroid sulphatase inhibitor [6]: equipotent with EMATE | time by which accumulation of cells in the G2/M phase was apparent [7]: ≤ 12 h | proportion of cells in the G1 phase ([7]; 12 h exposure): 50% | cell cycle distribution, G1 ([7]; 24 h): 10 | cell cycle distribution, G2/M ([7]; 24 h): 60 | cell cycle distribution, S ([7]; 24 h): 8 | cell cycle distribution, Sub-G1 ([7]; 24 h): 22 | cell cycle distribution, G1 ([7]; 24 h + 24 h drug-free culture): 8 | cell cycle distribution, G2/M ([7]; 24 h + 24 h drug-free culture): 57 | cell cycle distribution, S ([7]; 24 h + 24 h drug-free culture): 7 | cell cycle distribution, Sub-G1 ([7]; 24 h + 24 h drug-free culture): 27 | proportion of cells in the G1 phase ([7]; 24 h exposure): 23% | cell cycle distribution, G1 ([7]; 48 h): 14 | cell cycle distribution, G2/M ([7]; 48 h): 58 | cell cycle distribution, S ([7]; 48 h): 9 | cell cycle distribution, Sub-G1 ([7]; 48 h): 18 | effect on cell morphology [8]: significant increase in the number of rounded and detached cells
